One experiment has as its system Nitrosomonus. Put plainly: Nitrosomonus population in soil. The note with it: no coating material; urea 100 mg N kg^−1 soil. Type of experiment: cell-based. How it is done: (§1) Representative soil samples were analyzed for different forms of N i.e., urea N, NH4 and NO3-N at regular intervals for two weeks to assess the nitrification inhibitory properties of the materials in question following the standard procedures (Douglas and Bremner, 1970, Soil Sci. Soc. Am. Proc. 34:859-862). Another set of experiment was conducted to assay the total bacterial population, total actinomycetes population and nitrifying bacteria viz., Nitrosomons and Nitrobacber (Alexander and Clark, 1965, In. Method of Soil Analysis Part II (CA Black Eds) Am. Soc .Agron. Inc. Wisconsin, U.S.A.; KenKnight and Torariko. 1973, Agrokhimiya 7:3)

For another experiment, the system named is urease. The note with it: no coating material; urea 100 mg N kg^−1 soil; 24 hours of incubation.
The subject of experiment [1] is menthol mint (Mentha arvensis). The experiment is described as follows: Greenhouse pot culture experiment: herb yield, N accumulation, apparent N recovery. Type of experiment: in vivo. The note with it: urea N 100 mg kg^−1, coating materials added at 1.00% w/w (Nil for urea alone). How it is done:
To confirm the results of the incubation a pot culture experiment was conducted subsequently taking menthol mint (Mentha arvensis) as the test crops. Eight kg soil (<2 mm) were put in plastic container. The same fertilizers coating treatments as were in incubation experiment were imposed in this experiment, except that instead of two levels of coating materials, these were applied at 1.00% on v/w basis. The experiment was laid in a completely randomized design with four replications. The soils were analyzed for mineral forms of N at regular intervals. In addition, the plant samples were analyzed for N accumulation and apparent N recovery. [formula]

The test system of the next experiment is Actinomycetes. Put plainly: Total actinomycetes population in soil. To be noted: no coating material; urea 100 mg N kg^−1 soil. Type of experiment: cell-based. The protocol:
as §1

The subject of a further experiment is Total bacteria. Put plainly: Total bacterial population in soil. The class given is cell-based. The note with it: no coating material; urea 100 mg N kg^−1 soil. The protocol: as §1
The test system of the next experiment is Nitrobacter. Put plainly: Nitrobacter population in soil. The class given is cell-based. To be noted: no coating material; urea 100 mg N kg^−1 soil. The protocol: as §1

Each structure is given as a SMILES string.

As to `NC(N)=O` [Urea alone, Urea], in the experiment with Nitrosomonus, the Nitrosomonus is given as 3.30 × 103, g^−1 soil. Besides, the Urease activity in the experiment with urease was 66.5 μg NH4—N liberated/g soil/hour. In experiment [1], the “Apparent recovery (apparent N recovery)” value amounted to 29.1%, the Herb yield is listed as 42.8 g pot^−1 and the N accumulation is 450 mg pot^−1. Further, in experiment [1] (listed as urea alone), the “Apparent recovery (apparent N recovery)” value was determined as 29%. In the experiment with Actinomycetes, the Actinomycetes was 5.66 × 104, g^−1 soil. Also, the Total bacteria with Total bacteria was 4.00 × 105, g^−1 soil. In addition, in the experiment with Nitrobacter, the Nitrobacter is reported as 14.00 × 103, g^−1 soil.

For the origin of these results see US6336949B1, “Slow release urea fertilizer composition and a process for the preparation of the said composition” (Council of Scientific & Industrial Research, priority 1999, dated 2002).
